The values that follow come from ChEMBL document CHEMBL4145482, “Discovery of novel HSP90 inhibitors that induced apoptosis and impaired autophagic flux in A549 lung cancer cells” (Eur J Med Chem, 2018).

The structures appear in SMILES notation. Activity calls are given as the source filed them. The rule behind the calls is not given here.

In series [1] the test system is A549. The experiment in a line: Inhibition of autophagic flux in human A549 cells assessed as increase in p62 protein level at 10 uM after 24 hrs by Western blot analysis. Format: functional, cell-based. For orientation: In western blotting, separated proteins are transferred to a membrane and probed.
The test system of series [2] is A549. The experiment in a line: Induction of apoptosis in human A549 cells assessed as chromatin condensation at 10 uM after 6 to 24 hrs by Hoechst 33258 staining based fluorescence microscopic method. Type of series: functional, cell-based.
Series [3] relates to A549. Description: Growth inhibition of human A549 cells after 48 hrs by SRB assay. Format: functional, cell-based. Particulars: for IC50: A549, 48 h. (In general: Sulforhodamine B stains cellular protein and so reports cell mass.)
The subject of series [4] is A549. Description: Induction of apoptosis in human A549 cells assessed as DNA fragmentation at 10 uM after 6 to 24 hrs by Hoechst 33258 staining based fluorescence microscopic method. Format: functional, cell-based.
In series [5] the test system is A549. Description: Inhibition of autophagic flux in human A549 cells assessed as increase in LC3-2 protein level at 10 uM after 24 hrs by Western blot analysis. Format: functional, cell-based.
In series [6] the test system is A549. The experiment in a line: Inhibition of autophagic flux in human A549 cells assessed as increase in LC3-2 protein level at 10 uM after 24 hrs in presence of V-ATPase inhibitor bafilomycin-A1 by Western blot analysis. Type of series: functional, cell-based.
In series [7] the test system is A549. The experiment in a line: Induction of necrosis in human A549 cells at 10 to 20 uM after 48 hrs by LDH release assay. Type of series: functional, cell-based. A general note: LDH leaks from cells whose membrane has failed.
Series [8] concerns the target T1, Heat shock protein HSP90 (Homo sapiens) (UniProt P07900+P08238). Description: Inhibition of anti-HSP90 antibody binding to HSP90 in human A549 cells preincubated for 1 hr followed by antibody addition by Western blot analysis. Format: cell-based.
Series [9] has as its system A549. The experiment in a line: Inhibition of autophagic flux in human A549 cells assessed as increase in p62 protein level at 10 uM after 24 hrs in presence of V-ATPase inhibitor bafilomycin-A1 by Western blot analysis. Type of series: functional, cell-based.
The next series concerns HUVEC. The experiment in a line: Cytotoxicity against HUVEC assessed as reduction in cell viability after 48 hrs by SRB assay. Particulars: human. Format: cell-based.
In series [10] the target is T1, Heat shock protein HSP90 (Homo sapiens). Description: Inhibition of HSP90 in human A549 cells assessed as reduction in AKT protein expression at 10 uM up to 48 hrs by Western blot analysis. Format: cell-based.
Series [11] concerns A549. The experiment in a line: Effect on HSP90 protein expression in human A549 cells at 10 uM up to 48 hrs by Western blot analysis. Type of series: cell-based. The settings on record: a549, 48 h.
For series [12], the system named is A549. Description: Upregulation of HSP70 protein expression in human A549 cells at 10 uM up to 48 hrs by Western blot analysis. Format: cell-based. The settings on record: a549, 48 h.
Series [13] has as its target T1, Heat shock protein HSP90 (Homo sapiens). Description: Inhibition of HSP90 in human A549 cells assessed as reduction in NFkB p65 protein expression at 10 uM up to 48 hrs by Western blot analysis. Format: cell-based.
For series [14], the system named is A549. Description: Growth inhibition of human A549 cells up to 20 uM up to 48 hrs by SRB assay. Type of series: functional, cell-based.

The term IC50 denotes the point on the concentration scale where inhibition reaches its midpoint. Read a high IC50 as weaker potency. On to `COc1ccc(C2CC(c3cc4ccc(O)cc4oc3=O)=NN2c2ccc(Br)cc2)cc1` (stereo unspecified), for which the outcome in the series with A549 [1], in the series on A549 [2], with A549 [4] and in the series on A549 [5] was Active. In addition, the “growth inhibition (GI)” value in the series with A549 [3] was “Dose-dependent effect”. The molecule further gave an IC50 with A549 [3] of 6.5 µM. Moreover, the outcome with A549 [6], in the series on A549 [7] and in the series on A549 [9] was inactive. Further, the inhibition entry in series [8] is “Dose-dependent effect”.

Consider `O=c1oc2cc(O)ccc2cc1C1=NN(c2ccccc2)C(c2ccccc2)C1` (stereo unspecified), for which the Activity result in the series on HUVEC, in the series with A549 [11] and with A549 [12] was “Non-Toxic” in each case. Besides, the result in the series with A549 [1], in the series with A549 [2], in the series with A549 [4] and with A549 [5] was Active. The inhibition result in series [10] and in series [13] was “Active” each time. Moreover, the “growth inhibition (GI)” value in the series with A549 [3] is “Dose-dependent effect”. Besides, in the series on A549 [3], the IC50 was found to be 4.7 µM. Also, the result in the series on A549 [6], with A549 [7] and with A549 [9] was inactive. Also, the inhibition entry in [8] was “Dose-dependent effect”.

Turning to `COc1ccc(C2CC(c3cc4ccc(O)cc4oc3=O)=NN2c2ccc(Cl)cc2)cc1` (stereo unspecified), the outcome in the series with A549 [1], with A549 [2], with A549 [4] and with A549 [5] was Active. Also, the “growth inhibition (GI)” value in the series with A549 [3] was “Dose-dependent effect”. Moreover, half-maximal inhibition in the series on A549 [3] (IC50) was put at 9.6 µM. For the same molecule, the result in the series with A549 [6], in the series with A549 [7] and with A549 [9] was inactive. Also, the inhibition entry in [8] is “Dose-dependent effect”.

In the case of `COc1ccc(C2CC(c3cc4ccc(O)cc4oc3=O)=NN2c2ccccc2)cc1` (stereo unspecified), the outcome in the series with A549 [1], with A549 [2], in the series on A549 [4] and with A549 [5] was Active. In addition, in the series on A549 [3], the “growth inhibition (GI)” value is “Dose-dependent effect”. Besides, the IC50 in the series with A549 [3] came out at 6.3 µM. Moreover, the outcome in the series with A549 [6], in the series on A549 [7] and in the series with A549 [9] was inactive. Moreover, the inhibition entry in series [8] is “Dose-dependent effect”.

Take `O=c1[nH]cc(F)c(=O)[nH]1`: the “growth inhibition (GI)” value in the series on A549 [14] is “inactive”.

In the case of `O=c1oc2cc(O)ccc2cc1C1=NN(c2ccc(F)cc2)C(c2ccccc2)C1` (stereo unspecified), the result in the series with A549 [1], with A549 [2], with A549 [4] and in the series with A549 [5] was Active. Besides, the “growth inhibition (GI)” value with A549 [3] is “Dose-dependent effect”. In the series on A549 [3], this molecule gave a concentration for half-maximal inhibition (IC50) of 7.2 µM. Also, the result in the series on A549 [6], in the series on A549 [7] and with A549 [9] was inactive. For the same molecule, the inhibition result in [8] is “Dose-dependent effect”.

Turning to `COc1ccc(C2CC(c3cc4ccc(O)cc4oc3=O)=NN2c2ccc(F)cc2)cc1` (stereo unspecified), the outcome in the series on A549 [1], in the series with A549 [2], in the series on A549 [4] and in the series on A549 [5] was Active. Also, the “growth inhibition (GI)” value with A549 [3] is “Dose-dependent effect”. This molecule came in with an IC50 in the series on A549 [3] of 7.1 µM. In addition, the result in the series with A549 [6], in the series with A549 [7] and in the series on A549 [9] was inactive. Moreover, the inhibition entry in [8] is “Dose-dependent effect”.
